From patent US20030114403A1, “Method for treatment of cancers and antineoplastic pharmaceutical formulations” (CANADA Inc., priority 2001, published 2003)

Key:
[1] = system: Ehrlich ascites; experiment: Ehrlich ascites in A2G mice, single intraperitoneal treatment; conditions: for toxic side effects: animals followed up to one month
Experimental: Normal A2G mice were transplanted 24 hours prior to treatment with 1,000,000 Ehrlich ascites cells. Treatment procedures consisted of a single intraperitoneal injection of malachite green 4/mg/kg or brilliant green 2 mg/kg, with or without 0.7% levorotatory lactic acid.
A lot of 50 A2G mice with a bodyweight of approximately 25 g each were infected with Ehrlich ascites 48 hours prior to treatment. Treatment consisted of one intraperitoneal injection of 1.0 cm^3 brilliant green 1:20,000 solution (2 mg per kilogram) or 1.0 cm^3 of malachite green 1:10,000 (4 mg per kilogram), with 0.7% levorotatory lactic acid.

[2] = system: Ehrlich ascites cells; experiment: Transmission electron microscopy of Ehrlich ascites cells from intraperitoneal liquid after treatment; format: cell-based, A2G mice
[3] = single intraperitoneal injection, malachite green 4/mg/kg or brilliant green 2 mg/kg, with or without 0.7% levorotatory lactic acid

SMILES	toxic side effects [1, 3]	inactivation of malignant cells (electron microscope study of intraperitoneal liquid samples) ([2]; one i.p. injection of brilliant green 1:20,000 (2 mg per kilogram) or malachite green 1:10,000 (4 mg per kilogram) with 0.7% levorotatory lactic acid, samples at different times)	lipid droplet synthesis (TEM) ([2]; twenty-four hours after the treatment)	morphology (TEM) of ascites cells in peritoneal fluid ([2]; two weeks post treatment)	resolution of Ehrlich ascites [1, 3]	effect of blocking malignancies ([1]; with lactic acid as specific vector and metabolite, in vitro and in vivo)
CCN(CC)c1ccc(C(=C2C=CC(=[N+](CC)CC)C=C2)c2ccccc2)cc1 [brilliant green]	no obvious toxic side effects were observed					
CN(C)c1ccc(C(=C2C=CC(=[N+](C)C)C=C2)c2ccccc2)cc1 [malachite green]	no obvious toxic side effects were observed	complete inactivation of the malignant cells	slowed down	characteristic cytostatic morphology consistent with interruption of cell cycling	ability to resolve Ehrlich ascites	irreversible effect of blocking malignancies both in vitro and in vivo
